According to patent US20120115852A1, “HETEROCYCLIC COMPOUNDS AS AUTOTAXIN INHIBITORS” (Merck Patent Gesellschaft Mit Beschrankter Haftung, priority 2009, published 2012):

Biological target: T1, recombinant autotaxin (Homo sapiens, UniProt Q13822)
T1 construct: made in house; host or cells: Hi5 insect cells (baculovirus)
Assay: Autotaxin test (enzyme test), Amplex Red fluorescence with LPC substrate
Type: biochemical
Conditions: autotaxin inhibition (enzyme test); for remaining activity at 10 µM: 10 μM compound, read-out: % Control at 10 μM
Summary of the method: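 Purified recombinant autotaxin (baculovirus Hi5-expressed) pre-incubated with compound 30 min at 22° C, then LPC (final 75 μM) added and reacted 90 min at 37° C in Tris pH 8 buffer with CaCl2. Choline released was coupled via alkaline phosphatase, choline oxidase and peroxidase to Amplex Red; resorufin fluorescence read in kinetic mode (ex 485/em 612 nm).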

Row | SMILES | remaining activity at 10 µM [%] | IC50 [µM]
1 | Cc1ccc(-c2ccc3c(c2)C(=O)N2CCN(C(=O)CC(C)(C)C)CC2C(=O)N3)c(C)c1 (stereo not drawn) [Compound A86, 2-(3,3-Dimethylbutyryl)-7-(2,4-dimethylphenyl)-1,3,4,11a-tetrahydro-2H,10H-2,4a,10-triaza-dibenzo[a,d]cycloheptene-5,11-dione] | 78 | 
2 | CC(C)(C)CC(=O)N1CCN2C(=O)c3cc(-c4cc(F)c(F)cc4F)ccc3NC(=O)C2C1 (stereo not drawn) [Compound A92, 2-(3,3-Dimethylbutyryl)-7-(2,4,5-trifluorophenyl)-1,3,4,11a-tetrahydro-2H,10H-2,4a,10-triaza-dibenzo[a,d]cycloheptene-5,11-dione] | 1 | > 1
3 | O=C1Nc2ccc(-c3ccc(Cl)cc3F)cc2C(=O)N2CCN(C(=O)[C@H]3CCCN3C3CCNCC3)CC12 (stereo partly drawn) [Compound A93, 7-(4-Chloro-2-fluorophenyl)-2-((R)-1-piperidin-4-ylpyrrolidine-2-carbonyl)-1,3,4,11a-tetrahydro-2H,10H-2,4a,10-triazadibenzo[a,d]cycloheptene-5,11-dione] | 17 | 
4 | Cn1cc(CCC(=O)N2CCN3C(=O)c4cc(-c5ccc(Cl)cc5F)ccc4NC(=O)C3C2)cn1 (stereo not drawn) [Compound A95, 7-(4-Chloro-2-fluorophenyl)-2-[3-(1-methyl-1H-pyrazol-4-yl)propionyl]-1,3,4,11a-tetrahydro-2H,10H-2,4a,10-triazadibenzo[a,d]cycloheptene-5,11-dione] | 15 | > 1
5 | CC(C)(C)[C@H](O)C(=O)N1CCN2C(=O)c3cc(-c4ccc(Cl)cc4F)ccc3NC(=O)[C@H]2C1 [Compound A96, (R)-7-(4-Chloro-2-fluorophenyl)-2-((S)-2-hydroxy-3,3-dimethylbutyryl)-1,3,4,11a-tetrahydro-2H,10H-2,4a,10-triazadibenzo[a,d]cycloheptene-5,11-dione] | 1 | 0.1 to 1
6 | Cn1cc(CCC(=O)N2CCN3C(=O)c4cc(-c5ccc(Cl)cc5F)ccc4NC(=O)[C@H]3C2)cn1 [Compound A97, (R)-7-(4-Chloro-2-fluorophenyl)-2-[3-(1-methyl-1H-pyrazol-4-yl)propionyl]-1,3,4,11a-tetrahydro-2H,10H-2,4a,10-triazadibenzo[a,d]cycloheptene-5,11-dione] | 19 | 0.1 to 1
7 | Cn1cc(CCC(=O)N2CCN3C(=O)c4cc(-c5ccc(Cl)cc5F)ccc4NC(=O)[C@@H]3C2)cn1 [Compound A98, (S)-7-(4-Chloro-2-fIuorophenyl)-2-[3-(1-methyl-1H-pyrazol-4-yl)propionyl]-1,3,4,11a-tetrahydro-2H,10H-2,4a,10-triazadibenzo[a,d]cycloheptene-5,11-dione] | 90 | > 1
8 | O=C1Nc2ccc(-c3ccc(Cl)cc3F)cc2C(=O)N2CCN(C(=O)[C@@H]3CCCN3C3CCNCC3)CC12 (stereo partly drawn) [Compound A99, 7-(4-Chloro-2-fluorophenyl)-2-((S)-1-piperidin-4-yl-pyrrolidine-2-carbonyl)-1,3,4,11a-tetrahydro-2H,10H-2,4a,10-triazadibenzo[a,d]cycloheptene-5,11-dione] | 19 | > 1
9 | CC(C)(C)CC(=O)N1CCN2C(=O)c3cc(-c4ccc(Cl)cc4F)ccc3NC(=O)[C@H]2C1 [Compound A100, (R)-7-(4-Chloro-2-fluorophenyl)-2-(3,3-dimethyl-butyryl)-1,3,4,11a-tetrahydro-2H,10H-2,4a,10-triazadibenzo[a,d]cycloheptene-5,11-dione] | 11 | > 1
10 | Cc1ccc(-c2ccc3c(c2)C(=O)N2CCN(C(=O)[C@@H]4CCCN4C4CCNCC4)C[C@@H]2C(=O)N3)c(F)c1F [Compound A101, (R)-7-(2,3-Difluoro-4-methylphenyl)-2-((S)-1-piperidin-4-ylpyrrolidine-2-carbonyl)-1,3,4,11a-tetrahydro-2H,10H-2,4a,10-triaza-dibenzo[a,d]cycloheptene-5,11-dione] | 8 | 0.1 to 1
11 | O=C1Nc2ccc(-c3ccc(Cl)c(F)c3)cc2C(=O)N2CCN(C(=O)[C@@H]3CCCN3C3CCNCC3)C[C@H]12 [Compound A102, (R)-7-(4-Chloro-3-fluorophenyl)-2-((S)-1-piperidin-4-ylpyrrolidine-2-carbonyl)-1,3,4,11a-tetrahydro-2H,10H-2,4a,10-triazadibenzo[a,d]cycloheptene-5,11-dione] | 7 | 0.1 to 1

Continued, values first:

Row | remaining activity at 10 µM [%] | IC50 [µM] | SMILES
12 | 74 | > 1 | CC(C)(C)CC(=O)N1CCN2C(=O)c3cc(-c4cccc(C(F)(F)F)c4)ccc3NC(=O)C2C1 (stereo not drawn) [Compound A87, 2-(3,3-Dimethylbutyryl)-7-(3-trifluoromethylphenyl)-1,3,4,11a-tetrahydro-2H,10H-2,4a,10-triaza-dibenzo[a,d]cycloheptene-5,11-dione]
13 | -6 | > 1 | CC(C)(C)CC(=O)N1CCN2C(=O)c3cc(-c4cccc(F)c4F)ccc3NC(=O)C2C1 (stereo not drawn) [Compound A88, 7-(2,3-Difluorophenyl)-2-(3,3-dimethylbutyryl)-1,3,4,11a-tetrahydro-2H,10H-2,4a,10-triaza-dibenzo[a,d]cycloheptene-5,11-dione]
14 | 4 | > 1 | CC(C)(C)CC(=O)N1CCN2C(=O)c3cc(-c4cc(F)ccc4F)ccc3NC(=O)C2C1 (stereo not drawn) [Compound A89, 7-(2,5-Difluorophenyl)-2-(3,3-dimethylbutyryl)-1,3,4,11a-tetrahydro-2H,10H-2,4a,10-triaza-dibenzo[a,d]cycloheptene-5,11-dione]
15 | 24 | > 1 | Cc1ccc(-c2ccc3c(c2)C(=O)N2CCN(C(=O)CC(C)(C)C)CC2C(=O)N3)cc1C (stereo not drawn) [Compound A90, 2-(3,3-Dimethylbutyryl)-7-(3,4-dimethylphenyl)-1,3,4,11a-tetrahydro-2H,10H-2,4a,10-triaza-dibenzo[a,d]cycloheptene-5,11-dione]
16 | -6 | > 1 | CC(C)(C)CC(=O)N1CCN2C(=O)c3cc(-c4ccc(F)cc4F)ccc3NC(=O)C2C1 (stereo not drawn) [Compound A91, 7-(2,4-Difluorophenyl)-2-(3,3-dimethylbutyryl)-1,3,4,11a-tetrahydro-2H,10H-2,4a,10-triaza-dibenzo[a,d]cycloheptene-5,11-dione]
17 | -18 | > 1 | CC(C)(C)CC(=O)N1CCN2C(=O)c3cc(-c4ccc(Cl)c(F)c4)ccc3NC(=O)C2C1 (stereo not drawn) [Compound A94, 7-(4-Chloro-3-fluorophenyl)-2-(3,3-dimethylbutyryl)-1,3,4,11a-tetrahydro-2H,10H-2,4a,10-triaza-dibenzo[a,d]cycloheptene-5,11-dione]
18 | -10 | > 1 | CC(C)(C)CC(=O)N1CCN2C(=O)c3cc(-c4ccccc4Cl)ccc3NC(=O)C2C1 (stereo not drawn) [Compound A103, 7-(2-Chlorophenyl)-2-(3,3-dimethylbutyryl)-1,3,4,11a-tetrahydro-2H,10H-2,4a,10-triaza-dibenzo[a,d]cycloheptene-5,11-dione]
19 | -13 | 0.1 to 1 | CC(C)(C)CC(=O)N1CCN2C(=O)c3cc(-c4ccc(Cl)c(Cl)c4)ccc3NC(=O)C2C1 (stereo not drawn) [Compound A104, 7-(3,4-Dichlorophenyl)-2-(3,3-dimethylbutyryl)-1,3,4,11a-tetrahydro-2H,10H-2,4a,10-triaza-dibenzo[a,d]cycloheptene-5,11-dione]
